The values below come from patent US20230167073A1 (Teijin Pharma Limited, priority 2020, published 2023).

The first assay has as its target T1, Human TRPC6 (Homo sapiens, UniProt Q9Y210).
T1 construct: expressed in transfected cells
T1 sequence (Q9Y210 1-931): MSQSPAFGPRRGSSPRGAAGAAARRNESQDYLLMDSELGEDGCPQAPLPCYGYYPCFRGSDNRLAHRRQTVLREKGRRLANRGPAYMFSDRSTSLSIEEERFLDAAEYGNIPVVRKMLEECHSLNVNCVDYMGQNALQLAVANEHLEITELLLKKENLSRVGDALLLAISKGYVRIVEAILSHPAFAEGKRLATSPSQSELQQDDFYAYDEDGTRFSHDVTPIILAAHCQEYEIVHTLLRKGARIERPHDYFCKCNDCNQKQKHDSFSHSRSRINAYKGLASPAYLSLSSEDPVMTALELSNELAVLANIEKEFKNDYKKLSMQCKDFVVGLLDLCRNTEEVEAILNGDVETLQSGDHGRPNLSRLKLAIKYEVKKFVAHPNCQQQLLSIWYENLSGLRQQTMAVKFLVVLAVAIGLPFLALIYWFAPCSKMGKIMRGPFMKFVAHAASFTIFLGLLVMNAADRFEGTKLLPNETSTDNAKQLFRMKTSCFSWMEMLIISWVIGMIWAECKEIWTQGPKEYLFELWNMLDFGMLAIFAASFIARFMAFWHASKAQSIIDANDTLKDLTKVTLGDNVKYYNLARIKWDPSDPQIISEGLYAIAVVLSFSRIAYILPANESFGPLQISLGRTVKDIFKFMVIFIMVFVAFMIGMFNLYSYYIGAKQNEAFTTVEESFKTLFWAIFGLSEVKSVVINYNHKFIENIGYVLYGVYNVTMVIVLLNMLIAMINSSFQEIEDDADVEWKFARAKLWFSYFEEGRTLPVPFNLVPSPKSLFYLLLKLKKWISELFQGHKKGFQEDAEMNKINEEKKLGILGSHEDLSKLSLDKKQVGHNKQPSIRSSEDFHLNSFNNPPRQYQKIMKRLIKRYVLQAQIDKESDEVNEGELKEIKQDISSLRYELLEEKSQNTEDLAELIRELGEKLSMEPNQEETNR
The assay can be described thus: Evaluation of TRPC6 channel inhibitory activity (1), FLIPR Calcium 5 Assay Kit, OAG stimulation (Compound Nos. 1-1293). Type of assay: cell-based.
Settings: not given
The gist of the method:
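Readout is pIC50 from four-parameter logistic fitting of inhibition of the OAG-evoked (30 μM final) fluorescence calcium signal. Human TRPC6 stable cells are dye-loaded with probenecid, and compound is applied 20 min ahead of agonist.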
Regarding `Cc1nc(Oc2cc(C#N)ccc2-n2cc(C3=CCNCC3)cn2)cc(C2CCCC2)n1` [Compound 221, 3-(6-cyclopentyl-2-methylpyrimidin-4-yl)oxy-4-[4-(1,2,3,6-tetrahydropyridin-4-yl)pyrazol-1-yl]benzonitrile], the IC50 was in the range of 10 to 1000 nM.

Staying with this assay, now noted: Human TRPC6 stably-expressing cells, OAG 30 μM, FLIPR Calcium 5 Assay Kit; read-out: Inhibitory activity (pIC50 class) (converted).
As to `Cc1ccccc1-c1cn(Cc2cc(C#N)ccc2-c2ccc(CCN)cn2)c(C)n1` [compound 1151, 4-[5-(2-aminoethyl)pyridin-2-yl]-3-[[2-methyl-4-(2-methylphenyl)imidazol-1-yl]methyl]benzonitrile], the IC50 is below 10 nM.
Turning to `N#Cc1ccc(-c2ncc(CN)cn2)c(Sc2nnc(N3CCOCC3)s2)c1` [compound 1271, 4-[5-(aminomethyl)pyrimidin-2-yl]-3-[(5-morpholin-4-yl-1,3,4-thiadiazol-2-yl)sulfanyl]benzonitrile], the IC50 is above 1000 nM.
Regarding `N#Cc1ccc(-c2ncc(CCN)cn2)c(Sc2cnnc(N3CCCC3)c2)c1` [compound 1259, 4-[5-(2-aminoethyl)pyrimidin-2-yl]-3-(6-pyrrolidin-1-ylpyridazin-4-yl)sulfanylbenzonitrile], the IC50 is below 10 nM.
Consider `Cn1nc(-c2ccccc2)cc1Oc1cc(C#N)ccc1-c1ccc(C(N)C(N)=O)cn1` (stereo not drawn) [compound 516, 2-amino-2-[6-[4-cyano-2-(2-methyl-5-phenylpyrazol-3-yl)oxyphenyl]pyridin-3-yl]acetamide], for which the IC50 is above 1000 nM.
The same measure, in the same setting: to `Cn1nc(C2CC2)cc1Oc1cc(C#N)ccc1-n1ncc2c1CCNC2` [compound 777, 3-(5-cyclopropyl-2-methylpyrazol-3-yl)oxy-4-(4,5,6,7-tetrahydropyrazolo[4,3-c]pyridin-1-yl)benzonitrile] belongs above 1000 nM; to `Cn1nc(N2CCCC2)cc1C(=O)c1cc(C#N)ccc1-c1ncc(CN)cn1` [compound 1072, 4-[5-(aminomethyl)pyrimidin-2-yl]-3-(2-methyl-5-pyrrolidin-1-ylpyrazole-3-carbonyl)benzonitrile], below 10 nM; to `Cc1nc(N2CCOCC2)sc1C(=O)c1cc(C#N)ccc1-c1ccc(CCN)cn1` [compound 1076, 4-[5-(2-aminoethyl)pyridin-2-yl]-3-(4-methyl-2-morpholin-4-yl-1,3-thiazole-5-carbonyl)benzonitrile], below 10 nM.
For `N#Cc1ccc(-c2ccc(C(O)CN)cn2)c(Oc2cc(C3CC3)nn2CC(F)(F)F)c1` (stereo not drawn) [compound 370, 4-[5-(2-amino-1-hydroxyethyl)pyridin-2-yl]-3-[5-cyclopropyl-2-(2,2,2-trifluoroethyl)pyrazol-3-yl]oxybenzonitrile], the IC50 is below 10 nM.
Consider `Cn1nc(C2CC2)cc1Oc1cc(C#N)ccc1-c1ccc(C(O)CN)cc1` (stereo not drawn) [Compound 215, 4-[4-(2-amino-1-hydroxyethyl)phenyl]-3-(5-cyclopropyl-2-methylpyrazol-3-yl)oxybenzonitrile], for which the IC50 is below 10 nM.
For `Cn1nc(C(C)(C)C)cc1C(O)c1cc(C#N)ccc1-c1ccc(CN)cn1` (stereo not drawn) [compound 1233, 4-[5-(aminomethyl)pyridin-2-yl]-3-[(5-tert-butyl-2-methylpyrazol-3-yl)-hydroxymethyl]benzonitrile], the IC50 was below 10 nM.
As for `NCCc1cnc(-c2ccc(Cl)cc2Oc2cnn(CC(F)(F)F)c2)nc1` [compound 1023, 2-[2-[4-chloro-2-[1-(2,2,2-trifluoroethyl)pyrazol-4-yl]oxyphenyl]pyrimidin-5-yl]ethanamine], the IC50 is 10 to 1000 nM.
Take `Cc1nc(Oc2cc(C#N)ccc2-c2nc([C@H](O)CN)cs2)cc(-c2ccccc2)n1` [Compound 223, 4-[4-[(1R)-2-amino-1-hydroxyethyl]-1,3-thiazol-2-yl]-3-(2-methyl-6-phenylpyrimidin-4-yl)oxybenzonitrile]: the IC50 was 10 to 1000 nM.
With `Cn1nc(-c2ccccc2)cc1Oc1cc(C#N)ccc1-n1cc(N2CCCNCC2=O)cn1` [Compound 218, 3-(2-methyl-5-phenylpyrazol-3-yl)oxy-4-[4-(2-oxo-1,4-diazepan-1-yl)pyrazol-1-yl]benzonitrile], the IC50 is above 1000 nM.
`Cc1cc(Oc2cc(C#N)ccc2-c2ccn(CCN)c(=O)c2)cc(N2CCOCC2)n1` [compound 566, 4-[1-(2-aminoethyl)-2-oxopyridin-4-yl]-3-(2-methyl-6-morpholin-4-ylpyridin-4-yl)oxybenzonitrile]: the IC50 was 10 to 1000 nM.
As for `C[C@H](N)c1cnc(-c2ccc(C#N)cc2Oc2cc(-c3ccccn3)nn2C)nc1` [compound 809, 4-[5-[(1S)-1-aminoethyl]pyrimidin-2-yl]-3-(2-methyl-5-pyridin-2-ylpyrazol-3-yl)oxybenzonitrile], the IC50 was below 10 nM.
Turning to `Cc1cc(Oc2cc(C#N)ccc2-c2ncc(CN)cn2)cc(N2CCOCC2)n1` [compound 328, 4-[5-(aminomethyl)pyrimidin-2-yl]-3-(2-methyl-6-morpholin-4-ylpyridin-4-yl)oxybenzonitrile], the IC50 is below 10 nM.
On to `Cc1cc(Oc2cc(C#N)c(C)cc2-c2ncc(CN)cn2)cc(N2CCOCC2)n1` [compound 899, 4-[5-(aminomethyl)pyrimidin-2-yl]-2-methyl-5-(2-methyl-6-morpholin-4-ylpyridin-4-yl)oxybenzonitrile], for which the IC50 was 10 to 1000 nM.
On to `Cn1nc(-c2ccccc2O)cc1Oc1cc(C#N)ccc1-c1ccc(C(O)CN)cn1` (stereo not drawn) [compound 321, 4-[5-(2-amino-1-hydroxyethyl)pyridin-2-yl]-3-[5-(2-hydroxyphenyl)-2-methylpyrazol-3-yl]oxybenzonitrile], for which the IC50 was below 10 nM.
On to `Cc1cc(Oc2cc(C#N)ccc2-c2ncc(C3(N)CC3)cn2)cc(N2CCOCC2)n1` [compound 462, 4-[5-(1-aminocyclopropyl)pyrimidin-2-yl]-3-(2-methyl-6-morpholin-4-ylpyridin-4-yl)oxybenzonitrile], for which the IC50 is above 1000 nM.
As for `Cc1cc(Oc2cc(C#N)ccc2-c2ncc(CCN)cn2)n(C)n1` [compound 305, 4-[5-(2-aminoethyl)pyrimidin-2-yl]-3-(2,5-dimethylpyrazol-3-yl)oxybenzonitrile], the IC50 is 10 to 1000 nM.
With `Cc1nc(Oc2cc(C#N)ccc2-c2ccc(CCN)cc2)cc(N2CCCCC2)n1` [Compound 17, 4-[4-(2-Aminoethyl)phenyl]-3-(2-methyl-6-piperidin-1-ylpyrimidin-4-yl)oxybenzonitrile], the IC50 is below 10 nM.
`Cn1nc(C2CC2)cc1Oc1cc(C#N)ccc1-c1ncc([C@H](O)CN)cn1` [compound 373, 4-[5-[(1S)-2-amino-1-hydroxyethyl]pyrimidin-2-yl]-3-(5 cyclopropyl-2-methylpyrazol-3-yl)oxybenzonitrile]: the IC50 was below 10 nM.
The same measure, in the same setting: to `N#Cc1ccc(-c2ccc(CCN)cc2)c(Oc2cc(N3CCOCC3)cnn2)c1` [Compound 145, 4-[4-(2-aminoethyl)phenyl]-3-(5-morpholin-4-ylpyridazin-3-yl)oxybenzonitrile] belongs 10 to 1000 nM; to `Cc1cc(Oc2cc(C#N)ccc2-n2cc(CCN)cn2)n(C)n1` [compound 304, 4-[4-(2-aminoethyl)pyrazol-1-yl]-3-(2,5-dimethylpyrazol-3-yl)oxybenzonitrile], above 1000 nM.
With `Cn1nc(-c2ccccn2)cc1Oc1cc(C#N)ccc1-c1ncc(CCN)cn1` [Compound 285, 4-[5-(2-aminoethyl)pyrimidin-2-yl]-3-(2-methyl-5-pyridin-2-ylpyrazol-3-yl)oxybenzonitrile], the IC50 was below 10 nM.
Take `N#Cc1ccc(-c2ncc(CCN)cn2)c(Sc2sc(-c3ccccc3)nc2C#N)c1` [compound 1274, 5-[2-[5-(2-aminoethyl)pyrimidin-2-yl]-5-cyanophenyl]sulfanyl-2-phenyl-1,3-thiazole-4-carbonitrile]: the IC50 was 10 to 1000 nM.
As to `N#Cc1ccc(-c2ccc(CCN)cc2)c(Oc2cnnc(-c3ccccc3OC(F)(F)F)c2)c1` [Compound 117, 4-[4-(2-aminoethyl)phenyl]-3-[6-[2-(trifluoromethoxy)phenyl]pyridazin-4-yl]oxybenzonitrile], the IC50 was 10 to 1000 nM.
For `N#Cc1ccc(-c2ccc(CN)cn2)c(C(=O)c2nnc(N3CCOCC3)s2)c1` [compound 1093, 4-[5-(aminomethyl)pyridin-2-yl]-3-(5-morpholin-4-yl-1,3,4-thiadiazole-2-carbonyl)benzonitrile], the IC50 was above 1000 nM.
Turning to `CN(CC(F)F)c1cc(Oc2cc(C#N)ccc2-c2ncc(CCN)cn2)n(C)n1` [compound 786, 4-[5-(2-aminoethyl)pyrimidin-2-yl]-3-[5-[2,2-difluoroethyl(methyl)amino]-2-methylpyrazol-3-yl]oxybenzonitrile], the IC50 is below 10 nM.
